Measured values taken from ChEMBL document CHEMBL1126264, “Secondary metabolites by chemical screening. 17. Nigericinol derivatives: synthesis, biological activities, and modeling studies” (1992).
Values after ≈ are worked out from the molar mass of the structure shown.

Columns and labels:
Human alphaherpesvirus 2 = assay: Compound was tested for antimicrobial activity against HSV type 2; type: functional
[1] = (§1) Maximum tolerated dose (MTD) of the compound; type: functional; conditions: herpes simplex virus
Streptococcus pyogenes [2] = assay: Compound was tested for antimicrobial activity against […] pyogenes 308 A; type: functional
Streptococcus pyogenes [3] = assay: Compound was tested for antimicrobial activity against Streptococcus pyogenes 77A; type: functional, […] pyogenes
Human alphaherpesvirus 1 = assay: Compound was tested for antimicrobial activity against HSV type 1; type: functional
Staphylococcus aureus [4] = assay: Compound was tested for antimicrobial activity against Staphylococcus aureus 285
Staphylococcus aureus [5] = assay: Compound was tested for antimicrobial activity against Staphylococcus aureus 503
Staphylococcus aureus [6] = assay: Compound was tested for antimicrobial activity against Staphylococcus aureus SG511
herpes simplex virus = assay: as §1; type: functional

SMILES | MIC (Human alphaherpesvirus 2) [µg/mL] | MTD [1] [µg/mL] | MIC (Streptococcus pyogenes [2]) [µg/mL] | MIC (Streptococcus pyogenes [3]) [µg/mL] | MIC (Human alphaherpesvirus 1) [µg/mL] | MIC (Staphylococcus aureus [4]) [µg/mL] | MIC (Staphylococcus aureus [5]) [µg/mL] | MIC (Staphylococcus aureus [6]) [µg/mL] | MTD (herpes simplex virus) [µg/mL]
CO[C@@H]1C[C@@H](C[C@H]2CC[C@H](C)[C@H]([C@@H](C)C(=O)O)O2)OC2(O[C@](C)([C@H]3CC[C@@](C)([C@@H]4O[C@@H]([C@H]5OC(=O)[C@H](C)C[C@@H]5C)C[C@@H]4C)O3)C[C@H]2C)[C@@H]1C (stereo partly specified) | 13.3 (≈ 19.2 µM) | 40 | 25 (≈ 36.1 µM) | 25 (≈ 36.1 µM) | 4.44 (≈ 6.41 µM) | 50 (≈ 72.2 µM) | 50 (≈ 72.2 µM) | 50 (≈ 72.2 µM) | –
CO[C@@H]1C[C@@H](C[C@H]2CC[C@H](C)[C@H]([C@@H](C)C(=O)O)O2)OC2(O[C@](C)([C@H]3CC[C@@](C)([C@@H]4O[C@@H]([C@H]5O[C@](COC(=O)C(C)C)(OC)[C@H](C)C[C@@H]5C)C[C@@H]4C)O3)C[C@H]2C)[C@@H]1C (stereo partly specified) | > 400 | > 400 | 25 (≈ 30.9 µM) | > 100 | > 400 | 100 (≈ 124 µM) | 25 (≈ 30.9 µM) | > 100 | –
CO[C@@H]1C[C@@H](C[C@H]2CC[C@H](C)[C@H]([C@@H](C)C(=O)O)O2)OC2(O[C@](C)([C@H]3CC[C@@](C)([C@@H]4O[C@@H]([C@H]5O[C@@](O)(COC(=O)C(C)C)[C@H](C)C[C@@H]5C)C[C@@H]4C)O3)C[C@H]2C)[C@@H]1C (stereo partly specified) | < 0.02 | 1.4 | 0.049 (≈ 0.0616 µM) | 0.049 (≈ 0.0616 µM) | < 0.02 | 0.39 (≈ 0.491 µM) | 0.19 (≈ 0.239 µM) | 0.39 (≈ 0.491 µM) | –
CO[C@@H]1C[C@@H](C[C@H]2CC[C@H](C)[C@H]([C@@H](C)COC(=O)C(C)C)O2)OC2(O[C@](C)([C@H]3CC[C@@](C)([C@@H]4O[C@@H]([C@H]5O[C@@](O)(CO)[C@H](C)C[C@@H]5C)C[C@@H]4C)O3)C[C@H]2C)[C@@H]1C (stereo partly specified) | > 400 | > 400 | > 100 | > 100 | > 400 | > 100 | > 100 | > 100 | –
CO[C@@H]1C[C@@H](C[C@H]2CC[C@H](C)[C@H]([C@@H](C)CO)O2)OC2(O[C@](C)([C@H]3CC[C@@](C)([C@@H]4O[C@@H]([C@H]5O[C@](COC(=O)C(C)C)(OC)[C@H](C)C[C@@H]5C)C[C@@H]4C)O3)C[C@H]2C)[C@@H]1C (stereo partly specified) | > 400 | > 400 | > 100 | > 100 | > 400 | > 100 | > 100 | > 100 | –
CO[C@@H]1C[C@@H](C[C@H]2CC[C@H](C)[C@H]([C@@H](C)CO)O2)OC2(O[C@](C)([C@H]3CC[C@@](C)([C@@H]4O[C@@H]([C@H]5O[C@@](O)(CO)[C@H](C)C[C@@H]5C)C[C@@H]4C)O3)C[C@H]2C)[C@@H]1C (stereo partly specified) | < 0.18 | 14.8 | 1.56 (≈ 2.19 µM) | 1.56 (≈ 2.19 µM) | < 0.18 | 6.25 (≈ 8.79 µM) | 3.13 (≈ 4.4 µM) | > 100 | –
CO[C@@H]1C[C@@H](C[C@H]2CC[C@H](C)[C@H]([C@@H](C)C(=O)O)O2)OC2(O[C@](C)([C@H]3CC[C@@](C)([C@@H]4O[C@@H]([C@H]5O[C@@](O)(CO)[C@H](C)C[C@@H]5C)C[C@@H]4C)O3)C[C@H]2C)[C@@H]1C (stereo partly specified) | 0.05 (≈ 0.069 µM) | 1.4 | 0.025 (≈ 0.0345 µM) | 0.013 (≈ 0.0179 µM) | < 0.02 | 0.098 (≈ 0.135 µM) | 0.098 (≈ 0.135 µM) | 0.098 (≈ 0.135 µM) | –
CO[C@@H]1C[C@@H](C[C@H]2CC[C@H](C)[C@H]([C@@H](C)CO)O2)OC2(O[C@](C)([C@H]3CC[C@@](C)([C@@H]4O[C@@H]([C@@H](O)[C@@H](C)C[C@@H](C)CO)C[C@@H]4C)O3)C[C@H]2C)[C@@H]1C (stereo partly specified) | 133 (≈ 195 µM) | 40 | 1.56 (≈ 2.28 µM) | 50 (≈ 73.2 µM) | 40 (≈ 58.6 µM) | 3.13 (≈ 4.58 µM) | 1.56 (≈ 2.28 µM) | 6.25 (≈ 9.15 µM) | –
CO[C@@H]1C[C@@H](C[C@H]2CC[C@H](C)[C@H]([C@@H](C)CO)O2)OC2(O[C@](C)([C@H]3CC[C@@](C)([C@@H]4O[C@@H]([C@H]5O[C@](CO)(OC)[C@H](C)C[C@@H]5C)C[C@@H]4C)O3)C[C@H]2C)[C@@H]1C (stereo partly specified) | 0.5 (≈ 0.69 µM) | 14.5 | > 100 | > 100 | 4.94 (≈ 6.81 µM) | > 100 | > 100 | > 100 | –
CO[C@@H]1C[C@@H](C[C@H]2CC[C@H](C)[C@H]([C@@H](C)CCl)O2)OC2(O[C@](C)([C@H]3CC[C@@](C)([C@@H]4O[C@@H]([C@H]5O[C@@](O)(CCl)[C@H](C)C[C@@H]5C)C[C@@H]4C)O3)C[C@H]2C)[C@@H]1C (stereo partly specified) | < 0.02 | – | 0.098 (≈ 0.131 µM) | 0.78 (≈ 1.04 µM) | 0.02 (≈ 0.0267 µM) | 0.39 (≈ 0.521 µM) | 0.098 (≈ 0.131 µM) | 0.39 (≈ 0.521 µM) | 14.8
CO[C@@H]1C[C@@H](C[C@H]2CC[C@H](C)[C@H]([C@@H](C)C(=O)OCOCC[Si](C)(C)C)O2)OC2(O[C@](C)([C@H]3CC[C@@](C)([C@@H]4O[C@@H]([C@H]5O[C@](COCOCC[Si](C)(C)C)(OCOCC[Si](C)(C)C)[C@H](C)C[C@@H]5C)C[C@@H]4C)O3)C[C@H]2C)[C@@H]1C (stereo partly specified) | 13.3 (≈ 11.9 µM) | – | > 100 | > 100 | 4.44 (≈ 3.98 µM) | > 100 | > 100 | > 100 | > 40
CO[C@@H]1C[C@@H](C[C@H]2CC[C@H](C)[C@H]([C@@H](C)CO)O2)OC2(O[C@](C)([C@H]3CC[C@@](C)([C@@H]4O[C@@H]([C@H]5O[C@@](O)(COC(=O)C(C)C)[C@H](C)C[C@@H]5C)C[C@@H]4C)O3)C[C@H]2C)[C@@H]1C (stereo partly specified) | 0.49 (≈ 0.627 µM) | – | 3.13 (≈ 4.01 µM) | 12.5 (≈ 16 µM) | 0.49 (≈ 0.627 µM) | 6.25 (≈ 8 µM) | 3.13 (≈ 4.01 µM) | 12.5 (≈ 16 µM) | –
CO[C@@H]1C[C@@H](C[C@H]2CC[C@H](C)[C@H]([C@@H](C)CO)O2)OC2(O[C@](C)([C@H]3CC[C@@](C)([C@@H]4O[C@@H]([C@H]5O[C@](COCOCC[Si](C)(C)C)(OCOCC[Si](C)(C)C)[C@H](C)C[C@@H]5C)C[C@@H]4C)O3)C[C@H]2C)[C@@H]1C (stereo partly specified) | > 400 | – | 50 (≈ 51.5 µM) | 50 (≈ 51.5 µM) | > 400 | > 100 | > 100 | > 100 | > 400
CO[C@@H]1C[C@@H](C[C@H]2CC[C@H](C)[C@H]([C@@H](C)C(=O)O)O2)OC2(O[C@](C)([C@H]3CC[C@@](C)([C@@H]4O[C@@H]([C@H]5O[C@](CO)(OC)[C@H](C)C[C@@H]5C)C[C@@H]4C)O3)C[C@H]2C)[C@@H]1C (stereo partly specified) | 0.5 (≈ 0.677 µM) | 4.4 | 0.39 (≈ 0.528 µM) | 0.39 (≈ 0.528 µM) | 0.02 (≈ 0.0271 µM) | 1.56 (≈ 2.11 µM) | 1.56 (≈ 2.11 µM) | 1.56 (≈ 2.11 µM) | –
